In brackets after ≈: the same amount, converted by molar mass. Activity calls are given as the source filed them. The calls are words filed in the database; no cut-off is given here. *1 amine or outer side, *2 acyl side, *3 side chain or, on linkers, in order; H or OH if unused. Where a SMILES comes first, the peptide text is derived from it. [ ]: non-standard residue; d: D form. X1 = CC[C@@H](C)[C@@H](O[*:1])C(=O)[*:2]; NMeVal(β-OH) = CN[C@H](C(=O)O)C(C)(C)O; NMeF = CN[C@@H](Cc1ccccc1)C(=O)O; aIle = CC[C@@H](C)[C@H](N)C(=O)O; NMeV = CN[C@H](C(=O)O)C(C)C
What was measured:
Cryptococcus neoformans [1] = test: Antifungal activity against Cryptococcus neoformans PFCC 93-589 assessed as increase in extracellular potassium leakage at 2 times MIC incubated up to 12 hrs measured per mg dry weight of cell by spectrophotometric method; format: functional; conditions: time hrs <=12
Cryptococcus neoformans [2] = test: Downregulation of Cxt1p gene expression in Cryptococcus neoformans PFCC 93-589 assessed as fold decrease in […] at 2 ug/ml by SYBR green based RT-PCR analysis; format: functional; conditions: dose 2.0 µg/ml
Cryptococcus neoformans [3] = test: Induction of morphological changes in Cryptococcus neoformans PFCC 93-589 assessed as deposition of lipid globules at 2 ug/ml after 48 hrs by TEM analysis; format: functional, organism-based; conditions: dose 2.0 µg/ml
Cryptococcus neoformans [4] = test: Antifungal activity against Cryptococcus neoformans PFCC 93-589 after 2 days in absence of sorbitol by microdilution assay; format: functional; conditions: PFCC 93-589, 48 h, time 2 day
Cryptococcus neoformans [5] = test: Antifungal activity against Cryptococcus neoformans PFCC 93-589 assessed as inhibition of melanin production at 0.5 times MIC incubated for 2 to 10 days; format: functional, organism-based; conditions: time 2-10 day
Cryptococcus neoformans [6] = test: Antifungal activity against Cryptococcus neoformans PFCC 93-589 by broth microdilution assay; format: functional
Cryptococcus neoformans [7] = test: Antifungal activity against Cryptococcus neoformans PFCC 93-589 after 2 days in presence of sorbitol by microdilution assay; format: functional; conditions: PFCC 93-589, 48 h, time 2 day
Candida parapsilosis = test: Antifungal activity against Candida parapsilosis incubated for 24 hrs by broth microdilution method; format: functional; conditions: Lodderomyces parapsilosis
Aspergillus niger = test: Antifungal activity against Aspergillus niger incubated for 48 hrs by broth microdilution method; format: functional
[8] = Cytotoxicity against human HEK293 cells assessed as cell survival at 0.5 times MIC incubated for 24 hrs by MTT assay; format: cell-based; conditions: read-out: Activity
Nakaseomyces glabratus = test: Antifungal activity against Candida glabrata incubated for 24 hrs by broth microdilution method; format: functional
Cryptococcus neoformans [9] = test: Fungicidal activity against Cryptococcus neoformans PFCC 93-589 by broth microdilution assay; format: functional
Cryptococcus neoformans [10] = test: Inhibition of ergosterol biosynthesis in Cryptococcus neoformans PFCC 93-589 cell membrane assessed as ergosterol content at 0.5 times MIC incubated for 48 hrs by UV-visible spectrophotometric analysis (reference value: 0.134); format: functional, cell membranes
Cryptococcus neoformans [11] = test: Antifungal activity against Cryptococcus neoformans PFCC 93-589 assessed as TOS production at 2 times MIC incubated for 10 mins measured per mg of protein by colorimetric method (reference value: 1.63 umol); format: functional
Aspergillus fumigatus = test: Antifungal activity against Aspergillus fumigatus incubated for 48 hrs by broth microdilution method; format: functional
Cryptococcus neoformans [12] = test: Induction of morphological changes in Cryptococcus neoformans PFCC 93-589 assessed as disorganization of cytoplasmic content at 2 ug/ml after 48 hrs by TEM analysis; format: functional, organism-based; conditions: dose 2.0 µg/ml
Cryptococcus neoformans [13] = test: Antifungal activity against Cryptococcus neoformans PFCC 93-589 after 7 days in presence of sorbitol by microdilution assay; format: functional; conditions: PFCC 93-589, 168 h, time 7 day
Cryptococcus neoformans [14] = test: Antifungal activity against Cryptococcus neoformans PFCC 93-589 assessed as TOS production at 0.5 times MIC incubated for 10 mins measured per mg of protein by colorimetric method (reference value: 1.04 umol); format: functional
Cryptococcus neoformans [15] = test: Synergistic antifungal activity against Cryptococcus neoformans PFCC 93-589 assessed as fractional inhibitory concentration index in presence of fluconazole by checkerboard microtiter assay; format: functional
Cryptococcus neoformans [16] = test: Antifungal activity against Cryptococcus neoformans PFCC 93-589 after 7 days in absence of sorbitol by microdilution assay; format: functional; conditions: PFCC 93-589, 168 h, time 7 day
[17] = Hemolytic activity in human RBC at 1 ug/ml incubated for 30 mins; format: ADME, cell-based, Erythrocyte; conditions: red blood cells (erythrocytes), at 1 µg/mL, read-out: Activity
[18] = Cytotoxicity against human HEK293 cells assessed as inhibition of cell viability at 2 times MIC incubated for 24 hrs by MTT assay; format: cell-based; conditions: at 8 µg/mL, read-out: INH
Cryptococcus neoformans [19] = test: Antifungal activity against Cryptococcus neoformans PFCC 93-589 in presence of fluconazole by checkerboard microtiter assay; format: functional
Cryptococcus neoformans [20] = test: Antifungal activity against Cryptococcus neoformans PFCC 93-589 assessed as TOS production at 1 times MIC incubated for 10 mins measured per mg of protein by colorimetric method (reference value: 1.19 umol); format: functional
Candida albicans = test: Antifungal activity against Candida albicans incubated for 24 hrs by broth microdilution method; format: functional
Cryptococcus neoformans [21] = test: Inhibition of ergosterol biosynthesis in Cryptococcus neoformans PFCC 93-589 cell membrane at 1 times MIC incubated for 48 hrs by UV-visible spectrophotometric analysis; format: functional, cell membranes
[22] = Hemolytic activity in human RBC at 8 ug/ml incubated for 30 mins; format: ADME, cell-based, Erythrocyte; conditions: red blood cells (erythrocytes), at 8 µg/mL, read-out: Activity
[23] = Cytotoxicity against human HEK293 cells assessed as cell survival at 0.25 times MIC incubated for 24 hrs by MTT assay; format: cell-based; conditions: read-out: Activity
[24] = Hemolytic activity in human RBC at 4 ug/ml incubated for 30 mins; format: cell-based, Erythrocyte; conditions: red blood cells (erythrocytes), at 4 µg/mL, read-out: Activity
Cryptococcus neoformans [25] = test: Induction of morphological changes in Cryptococcus neoformans PFCC 93-589 assessed as excessive vacuolization at 2 ug/ml after 48 hrs by TEM analysis; format: functional, organism-based; conditions: dose 2.0 µg/ml
Candida tropicalis = test: Antifungal activity against Candida tropicalis incubated for 24 hrs by broth microdilution method; format: functional
Aspergillus flavus = test: Antifungal activity against Aspergillus flavus incubated for 48 hrs by broth microdilution method; format: functional
Cryptococcus neoformans [26] = test: Antifungal activity against Cryptococcus neoformans PFCC 93-589 assessed as half minimum inhibitory concentration by broth microdilution assay; format: functional
[27] = Cytotoxicity against human HEK293 cells assessed as cell survival at 1 times MIC incubated for 24 hrs by MTT assay; format: cell-based; conditions: read-out: Activity
Cryptococcus neoformans [28] = test: Inhibition of ergosterol biosynthesis in Cryptococcus neoformans PFCC 93-589 cell membrane assessed as ergosterol content at 1 times MIC incubated for 48 hrs by UV-visible spectrophotometric analysis (reference value: 0.134); format: functional, cell membranes
[29] = Hemolytic activity in human RBC at 0.5 ug/ml incubated for 30 mins; format: ADME, cell-based, Erythrocyte; conditions: red blood cells (erythrocytes), at 0.5 µg/mL, read-out: Activity
Cryptococcus neoformans [30] = test: Inhibition of ergosterol biosynthesis in Cryptococcus neoformans PFCC 93-589 cell membrane at 0.5 times MIC incubated for 48 hrs by UV-visible spectrophotometric analysis; format: functional, cell membranes
Cryptococcus neoformans [31] = test: Downregulation of Cxt1p gene expression in Cryptococcus neoformans PFCC 93-589 at 2 ug/ml by SYBR green based RT-PCR analysis relative to control; format: functional; conditions: dose 2.0 µg/ml
Cryptococcus neoformans [32] = test: Upregulation of Lac1 gene expression in Cryptococcus neoformans PFCC 93-589 assessed as fold increase in […] at 2 ug/ml by SYBR green based RT-PCR analysis; format: functional; conditions: dose 2.0 µg/ml
Pichia kudriavzevii = test: Antifungal activity against Candida krusei incubated for 24 hrs by broth microdilution method; format: functional
[33] = Hemolytic activity in human RBC at 2 ug/ml incubated for 30 mins; format: ADME, cell-based, Erythrocyte; conditions: red blood cells (erythrocytes), at 2 µg/mL, read-out: Activity
Cryptococcus neoformans [34] = test: Induction of morphological changes in Cryptococcus neoformans PFCC 93-589 assessed as disintegration and loosening of cell membrane at 4 ug/ml after 48 hrs by TEM analysis; format: functional, organism-based; conditions: dose 4.0 µg/ml
[35] = Hemolytic activity in human RBC at 16 ug/ml incubated for 30 mins; format: ADME, cell-based, Erythrocyte; conditions: red blood cells (erythrocytes), at 16 µg/mL, read-out: Activity
Cryptococcus neoformans [36] = test: Upregulation of Lac1 gene expression in Cryptococcus neoformans PFCC 93-589 at 4 ug/ml by SYBR green based RT-PCR analysis; format: functional; conditions: dose 4.0 µg/ml
Cryptococcus neoformans [37] = test: Antifungal activity against Cryptococcus neoformans PFCC 93-589 in presence of Aureobasidin-A by checkerboard microtiter assay; format: functional
Cryptococcus neoformans [38] = test: Downregulation of Cxt1p gene expression in Cryptococcus neoformans PFCC 93-589 at 4 ug/ml by SYBR green based RT-PCR analysis; format: functional; conditions: dose 4.0 µg/ml
[39] = Cytotoxicity against human HEK293 cells assessed as cell viability at 2 times MIC incubated for 24 hrs by MTT assay; format: cell-based; conditions: read-out: Activity
Cryptococcus neoformans [40] = test: Induction of morphological changes in Cryptococcus neoformans PFCC 93-589 assessed as disorganization of cytoplasmic content at 4 ug/ml after 48 hrs by TEM analysis; format: functional, organism-based; conditions: dose 4.0 µg/ml

CC[C@@H](C)[C@@H]1NC(=O)[C@@H]2CCCN2C(=O)[C@H](Cc2ccccc2)N(C)C(=O)[C@H](Cc2ccccc2)NC(=O)[C@H](C(C)C)N(C)C(=O)[C@@H]([C@H](C)CC)OC(=O)[C@H](C(C)(C)O)N(C)C(=O)[C@H](CC(C)C)NC(=O)[C@H](C(C)C)N(C)C1=O [AUREOBASIDIN A] (cyclo(F[NMeF]P[aIle][NMeV]L[NMeVal(β-OH)][X1][NMeV]))
Activity (Cryptococcus neoformans [1]): 2.51 mM
fold change (FC) (Cryptococcus neoformans [2]): 0.2
Activity (Cryptococcus neoformans [3]): Active
MIC (Cryptococcus neoformans [4]): 8 µg/mL (≈ 7.26 µM)
Activity (Cryptococcus neoformans [5]): Active
MIC (Cryptococcus neoformans [6]): 4 µg/mL (≈ 3.63 µM)
MIC (Cryptococcus neoformans [7]): 8 µg/mL
MIC (Candida parapsilosis): < 2000 µg/mL
MIC (Aspergillus niger): 800 µg/mL (≈ 726 µM)
viability at 24 h, 0.5 times MIC [8]: 89%
MIC (Nakaseomyces glabratus): < 2000 µg/mL
MFC (Cryptococcus neoformans [9]): 8 µg/mL (≈ 7.26 µM)
Activity (Cryptococcus neoformans [10]): 0.095
Activity (Cryptococcus neoformans [11]): 3.09 nmol
MIC (Aspergillus fumigatus): > 50000 µg/mL
Activity (Cryptococcus neoformans [12]): Active
MIC (Cryptococcus neoformans [13]): 16 µg/mL
Activity (Cryptococcus neoformans [14]): 1.46 nmol
fractional inhibitory concentration index (FICI) (Cryptococcus neoformans [15]): 0.26
MIC (Cryptococcus neoformans [16]): 16 µg/mL (≈ 14.5 µM)
hemolysis at 0.5 h, 1 ug/ml [17]: 0.31%
cytotoxicity at 24 h, 2 times MIC [18]: 40%
MIC (Cryptococcus neoformans [19]): 1 µg/mL
Activity (Cryptococcus neoformans [20]): 2.12 nmol
MIC (Candida albicans): < 2000 µg/mL
inhibition (Cryptococcus neoformans [21]): 41.8%
hemolysis at 0.5 h, 8 ug/ml [22]: 2.4%
viability at 24 h, 0.25 times MIC [23]: 98%
hemolysis at 0.5 h, 4 ug/ml [24]: 1.35%
Activity (Cryptococcus neoformans [25]): Active
MIC (Candida tropicalis): < 2000 µg/mL
MIC (Aspergillus flavus): > 50000 µg/mL
MIC (Cryptococcus neoformans [26]): 2 µg/mL (≈ 1.82 µM)
viability at 24 h, 1 times MIC [27]: 75%
Activity (Cryptococcus neoformans [28]): 0.078
hemolysis at 0.5 h, 0.5 ug/ml [29]: 0%
inhibition (Cryptococcus neoformans [30]): 29.1%
inhibition (Cryptococcus neoformans [31]): 80%
fold change (FC) (Cryptococcus neoformans [32]): 11.7
MIC (Pichia kudriavzevii): < 2000 µg/mL
hemolysis at 0.5 h, 2 ug/ml [33]: 0.65%

OC(Cn1cncn1)(Cn1cncn1)c1ccc(F)cc1F [FLUCONAZOLE]
Activity (Cryptococcus neoformans [34]): Active
MIC (Cryptococcus neoformans [4]): 16 µg/mL (≈ 52.2 µM)
Activity (Cryptococcus neoformans [5]): Active
MIC (Cryptococcus neoformans [6]): 8 µg/mL (≈ 26.1 µM)
MIC (Cryptococcus neoformans [7]): 16 µg/mL
viability at 24 h, 0.5 times MIC [8]: 97.9%
MFC (Cryptococcus neoformans [9]): 16 µg/mL (≈ 52.2 µM)
Activity (Cryptococcus neoformans [10]): 0.055
hemolysis at 0.5 h, 16 ug/ml [35]: 53%
MIC (Cryptococcus neoformans [13]): 64 µg/mL
Activity (Cryptococcus neoformans [36]): inactive
MIC (Cryptococcus neoformans [16]): 64 µg/mL (≈ 209 µM)
hemolysis at 0.5 h, 1 ug/ml [17]: 18%
inhibition (Cryptococcus neoformans [21]): 64.9%
hemolysis at 0.5 h, 8 ug/ml [22]: 42%
viability at 24 h, 0.25 times MIC [23]: 99.9%
MIC (Cryptococcus neoformans [37]): 0.5 µg/mL
hemolysis at 0.5 h, 4 ug/ml [24]: 34%
MIC (Cryptococcus neoformans [26]): 4 µg/mL (≈ 13.1 µM)
viability at 24 h, 1 times MIC [27]: 95.5%
inhibition (Cryptococcus neoformans [38]): inactive
Activity (Cryptococcus neoformans [28]): 0.047
viability at 24 h, 2 times MIC [39]: 88.6%
Activity (Cryptococcus neoformans [40]): Active
inhibition (Cryptococcus neoformans [30]): 59%
hemolysis at 0.5 h, 2 ug/ml [33]: 29%

From ChEMBL document CHEMBL4814046, “Inhibitory effects and mechanism of antifungal action of the natural cyclic depsipeptide, aureobasidin A against Cryptococcus neoformans” (Bioorg Med Chem Lett, 2021)
